Source: patent US20230027066A1 (Urovant Sciences GmbH, priority 2019, published 2023)

Assay: Phase 1 multiple-dose study in healthy subjects, maximum MA4 heart rate
Type: in vivo, human
Conditions: for Maximum MA4 HR (maximum change from baseline in moving average of heart rate over 4 hours postdose), LS mean (90% CI) / Maximum MA4 HR, difference from placebo (90% CI): Day 14
Experimental: More intensive assessments of heart rate and blood pressure were performed in healthy volunteers in several Phase 1 studies. […] Doses ranged from 25 to 400 mg once daily for 7 to 28 days depending on the cohort. Least squares mean and 90% confidence intervals of maximum change from baseline in moving average of heart rate over 4 hours postdose (MA4 HR) are presented in Table 7.

## O=C(Nc1ccc(C[C@@H]2CC[C@H]([C@H](O)c3ccccc3)N2)cc1)[C@@H]1CCc2nccc(=O)n21 [Vibegron, (6S)-N-[4-[[(2S,5R)−5-[(R)-hydroxy(phenyl)methyl]pyrrolidin−2-yl]methyl]phenyl]−4-oxo−7,8-dihydro−6H-pyrrolo[1,2-a]pyrimidine−6-carboxamide]
Vibegron 25 mg once daily
  Maximum MA4 HR (maximum change from baseline in moving average of heart rate over 4 hours postdose), LS mean (90% CI): 1.47 (−3.24, 6.17) bpm
  Maximum MA4 HR, difference from placebo (90% CI): −1.60 (−7.09, 3.88) bpm
Vibegron 50 mg once daily
  Maximum MA4 HR (maximum change from baseline in moving average of heart rate over 4 hours postdose), LS mean (90% CI): 1.50 (−2.79, 5.79) bpm
  Maximum MA4 HR, difference from placebo (90% CI): −1.57 (−6.70, 3.56) bpm
Vibegron 100 mg
  maximum MA4 HR, difference from placebo: < 1 bpm
Vibegron 100 mg once daily
  Maximum MA4 HR (maximum change from baseline in moving average of heart rate over 4 hours postdose), LS mean (90% CI): 3.28 (−1.02, 7.57) bpm
  Maximum MA4 HR, difference from placebo (90% CI): 0.21 (−4.93, 5.34) bpm
Vibegron 150 mg once daily
  Maximum MA4 HR (maximum change from baseline in moving average of heart rate over 4 hours postdose), LS mean (90% CI): 3.17 (−1.13, 7.46) bpm
  Maximum MA4 HR, difference from placebo (90% CI): 0.10 (−5.04, 5.23) bpm
Vibegron 200 mg once daily
  Maximum MA4 HR (maximum change from baseline in moving average of heart rate over 4 hours postdose), LS mean (90% CI): 5.67 (0.96, 10.37) bpm
  Maximum MA4 HR, difference from placebo (90% CI): 2.60 (−2.89, 8.08) bpm
Vibegron 300 mg once daily
  Maximum MA4 HR (maximum change from baseline in moving average of heart rate over 4 hours postdose), LS mean (90% CI): 9.06 (4.76, 13.35) bpm
  Maximum MA4 HR, difference from placebo (90% CI): 5.98 (0.85, 11.12) bpm
Vibegron 400 mg once daily
  Maximum MA4 HR (maximum change from baseline in moving average of heart rate over 4 hours postdose), LS mean (90% CI): 10.33 (6.04, 14.63) bpm
  Maximum MA4 HR, difference from placebo (90% CI): 7.26 (2.13, 12.39) bpm
